Literature values, collected in patent publication US11524087B2, “Microwave assisted methods and systems for surface decontamination” (priority 2019, dated 2022).

Structure (SMILES): [O][Cl+][O-] [CD, chlorine dioxide]
- short term exposure limit (STEL) (15-minute): 0.25 ppm
- immediately damaging to life and health (IDLH) level (NIOSH): 5 ppm
- permissible exposure limit (PEL) (OSHA): 0.1 ppm
